Assay [1] relates to MC38 colon cancer cells. Briefly: MC38 colon tumor growth (tumor volume) in C57BL/6 mice. In kind it is in vivo.
Method: Tumor volumes were measured and plotted. (B) MC38 colon cancer cells were injected subcutaneously into the right flank of C57BL/6 mice. After seven days when tumors became palpable, one group was treated with 5-HTR7 antagonist SB-269970 (n=6 mice; 3 mg/kg/day) or left untreated (n=6 mice). Tumor volume was measured and plotted. (C) After seven days of the setting of tumor growth, one group was treated with a serotonin transporter blocker (SSRI) sertraline hydrochloride (n=6 mice; 15 mg/kg/week) or left untreated (n=6 mice). Tumor volume was measured and plotted. (D) C57BL/6 mice were given subcutaneously injected MC38 cells. After seven days of tumor growth, one group of mice was treated with different doses of 5-HTR2B antagonist SB-215505 (n=6). Tumor volume was measured and plotted. (E) C57BL/6 mice were given subcutaneously injected MC38 cells. After seven days of the tumor growth, one group of mice was treated with different doses of 5-HTR2B antagonist SB-215505 (n=6), one group treated with 5-HTR2B agonist BW-723C86 (n=6; 4 mg/kg/day). Tumor volume was measured and plotted. (F) MC38 cells were subcutaneously injected into C57BL/6 mice. After seven days when the tumor became palpable in mice, one group of mice was treated with FDA-approved 5-HTR2B antagonist cariprazine (Carispec; Sun pharma) via oral gavage (n=5 mice; dose 5 mg/kg body weight/day) or left untreated (n=5 mice). Tumor growth was measured and plotted. […] All the statistical analysis was performed using Student's ‘t’ test or two-way ANOVA using Sidak's multiple comparison test. *P<0.05; **P<0.01; ***P<0.00; ****P<0.0001 Error bar represents mean±standard error of means (SEM).
The test system of assay [2] is B16F10 cells. Briefly: B16F10 melanoma model, tumor volume. It counts as in vivo, C57BL/6J mice. The note with it: SB-215505 vs untreated, from day 7 (FIG. 7H). On the procedure:
(§1) FIG. 7 depicts that antagonizing the 5-HTR2B in mice inhibits breast and colon tumor growth: (A) MC38 colon cancer cells were injected subcutaneously into the right flank of C57BL/6 mice. […] Tumor volumes were measured and plotted. (B) MC38 colon cancer cells were injected subcutaneously into the right flank of C57BL/6 mice. After seven days when tumors became palpable, one group was treated with 5-HTR7 antagonist SB-269970 (n=6 mice; 3 mg/kg/day) or left untreated (n=6 mice). Tumor volume was measured and plotted. (C) After seven days of the setting of tumor growth, one group was treated with a serotonin transporter blocker (SSRI) sertraline hydrochloride (n=6 mice; 15 mg/kg/week) or left untreated (n=6 mice). Tumor volume was measured and plotted. (D) C57BL/6 mice were given subcutaneously injected MC38 cells. After seven days of tumor growth, one group of mice was treated with different doses of 5-HTR2B antagonist SB-215505 (n=6). Tumor volume was measured and plotted. (E) C57BL/6 mice were given subcutaneously injected MC38 cells. After seven days of the tumor growth, one group of mice was treated with different doses of 5-HTR2B antagonist SB-215505 (n=6), one group treated with 5-HTR2B agonist BW-723C86 (n=6; 4 mg/kg/day). Tumor volume was measured and plotted. […] Tumor growth was measured and plotted. […] Tumour volumes were measured and plotted. […] Tumour volumes were measured and plotted. […]

Assay [3] relates to 4T1-Luc2 cells. Briefly: 4T1-Luc2 breast cancer model, tumor volume. The note with it: SB-215505 vs untreated, from day 7 (FIG. 7G). It counts as in vivo, BALB/c mice. How it is done:
as §1, with “(E) C57BL/6 mice were given subcutaneously injected MC38 cells. After seven days of the tumor growth, one group of mice was treated with different doses of 5-HTR2B antagonist SB-215505 (n=6), one group treated with 5-HTR2B agonist BW-723C86 (n=6; 4 mg/kg/day).” left out
FIG. 16 depicts the effect of the 5-HTR2B antagonist on the FDA-approved chemotherapy drug treatment: (A) BALB/C mice were inoculated with 4T1-Luc2 cells in the mammary fat pad. […] Tumor volume was measured and plotted. […]

Assay [4] deals with MC38 cells. Description: MC38 tumor growth in immuno-compromised NRG mice. It counts as in vivo. The note with it: 4 mg/kg/day from day 7; not as much as in wild-type mice (FIG. 8B). On the procedure:
FIG. 8 depicts that 5-HTR2B antagonism promotes antigen-specific immune response to the tumor: (A) Experimental protocol for SB-215505 treatment in MC38 tumor-bearing NRG mice. In brief, (B) MC38 cells were injected subcutaneously into NRG mice. After seven days of the tumor growth setting in mice, one group of mice was treated with 5-HTR2B antagonist SB-215505 (n=5 mice) or left untreated (n=5 mice). Tumour volumes were measured and plotted. (C) Experimental protocol for adoptive transfer of SB-215505 pre-treated naïve or MC38 tumor primed immune cells in MC38 tumor-bearing NRG mice. In brief: (D) MC38 cells were injected subcutaneously into NRG mice. Those mice were adoptively transferred with naïve (n=4 mice) or MC38 tumor primed immune cells (n=4 mice) or SB-215505 pre-treated naïve (n=4 mice) or SB-215505 pre-treated MC38 tumor primed immune cells (n=4 mice) from the day of tumor inoculation. After the tumor begins to appear, tumor volumes were measured and plotted. […]
MC38 and MC38-cOVA cells were injected subcutaneously into the right flank of male C57BL/6 or NRG mice (0.5×10^6 cells/mouse in 150 μl PBS). […] Tumor volume was measured using a Vernier caliper on each alternate day or every third day as soon as the tumor appears. The volume of the tumor was measured using the formula V=L×W^2/2, where L=length of the tumor (mm) and W=width of the tumor (mm). […]

The test system of assay [5] is MC38 cells. Description: MTT cell viability assay. In kind it is cell-based, mouse. The note with it: graded dose; reduced serum media; 48 hours of stimulation. How it is done:
FIG. 6 depicts that 5-HTR2B signalling in colon cancer affects cell proliferation and viability: Colon cancer MC38 cells were treated with serotonin (100 μM), 5-HTR2B agonist (BW-723C86; 50 μM), or 5-HTR2B antagonist (SB-215505; 50 μM) for 48 hours, and cell cycle analysis was performed by propidium iodide staining using flow cytometry. MC38 cells were also treated with a graded dose of 5-HTR2B agonist (BW-723C86) or serotonin. MTT assay was performed to measure cell viability. (A) After treatment with 5-HTR2B agonist BW-723C86, serotonin, or 5-HTR2B antagonist SB-215505, the relative cell cycle analysis is shown. (B) Relative cell viability data of MC38 cells following treatment of graded doses of 5-HTR2B agonist BW-723C86 or serotonin are shown. The data shown are representative of one of the three independent experiments. (C) MC38 tumor sections from the control tumor and 5-HTR2B antagonist treated tumor were stained for CD31 and the number of CD31^+ micro-blood vessels/mm^2 of tissue sections was counted and plotted to observe angiogenesis. Error bar represents ±standard error of the mean (SEM).
MC38 cells were cultured at a density of 0.5×10^4 cells/well in 96 well plates (flat bottom) and were allowed to adhere for 24 hours. […] Then, MTT crystals were dissolved with DMSO, and the reading was taken at 590 nm in an ELISA reader (Thermofisher). […]
On the technique in general: Formazan colour is commonly taken as a measure of viable cells.

For assay [6], the system named is PD-L1. Briefly: PD-L1 expression on MC38 cells in vitro (flow cytometry, mRNA). In kind it is cell-based, mouse. The note with it: BW-723C86 50 μM, serotonin 100 μM, RS-127445 50 μM, 72 hours (mRNA 48 hours) (FIG. 13A-E). How it is done:
FIG. 13 depicts 5-HTR2B signaling promotes PD-L1 expression on the MC38 cell line in vitro: (A-B) MC38 cells are treated with 5-HTR2B agonist (BW-723C86-50 μM), serotonin (100 μM), and 5-HTR2B antagonist (RS-127445-50 μM) for 72 hours, and the PD-L1 expression was checked by flow cytometry and the percentage of PD-L1^+ MC38 cells was plotted. (C-D) MFI of PD-L1 from the above experiment were plotted as histogram overlay (C) or as statistical data points (D). (E) Relative PD-L1 mRNA expression in MC38 cells following BW-723C86 and RS-127445 treatment for 48 hours. Here the values are shown as a fold change as compared to control MC38 cells. (F) Serum PD-L1 level was measured by ELISA of naïve C57BL/6J mice, control MC38 tumor-bearing mice, BW-723C86 (5 mg/kg/day) treated MC38 tumor-bearing mice and RS-127445 (5 mg/kg/day) treated MC38 tumor-bearing mice after 14 days of tumor inoculation. All the statistical analysis was performed using either Student's ‘t’ test or two-way ANOVA using Sidak's multiple comparison test. *P<0.05; **P<0.01; […]; ****P<0.0001 Error bar represents mean±standard error of means (SEM).
To understand it, investigations were done on whether 5-HTR2B signaling also affects the surface expression of molecules that alters inflammatory and cytotoxic immune cells. Among different molecules, PD-L1 is of particular interest as it is an immune checkpoint ligand that affects cytotoxic T-cell responses toward cancer. […] (FIG. 13F).
Background: Flow cytometry measures light scatter and fluorescence of single cells or particles in a stream.

The mark [7] stands for this setting: 4 mg/kg/day from day 7 after inoculation, vs untreated (FIG. 7A).

Take `Cc1nc2sccn2c(=O)c1CCN1CCC(=C(c2ccc(F)cc2)c2ccc(F)cc2)CC1` [Ritanserin]: the MC38 tumor growth result in assay [1] (setting [7]) is listed as “controls tumor growth to some extent”; in assay [1] (4 mg/kg/day from day 7 after inoculation, vs untreated (FIG. 7A), listed as ritanserin) it was “did not prevent tumor growth”.

As for `Cc1cc2c(cc1Cl)N(C(=O)Nc1cccc3ncccc13)CC2` [SB-215505], the “tumor burden, mice melanoma model” value in assay [2] is given as “reduced tumor burden”. For the same compound, in assay [3], the “tumor burden, mice breast cancer model” value was “reduced tumor burden”. Moreover, in assay [4], the “MC38 tumor growth in NRG mice” value was “suppressed to some extent”. Besides, in assay [1] (setting [7]), the MC38 tumor growth result is on record as “efficiently control the tumor growth”. Moreover, the “most efficient dose in reducing MC38 tumor growth” value in assay [1] (dose-response, doses from 0.5 mg/kg/day to 4 mg/kg/day (FIG. 7D)) was determined as 4 mg/kg/day.

With `CN(C)C(=O)N[C@H]1CC[C@H](CCN2CCN(c3cccc(Cl)c3Cl)CC2)CC1` [cariprazine], the MC38 tumor growth result in assay [1] (oral gavage, 5 mg/kg body weight/day (FIG. 7F)) is recorded as “significant reduction in MC38 tumor growth”.

Consider `NCCc1c[nH]c2ccc(O)cc12` [serotonin], for which, in assay [5], the “viability of MC38 cells” value is recorded as “enhanced the viability of MC38 cells”. In addition, the “expression of PD-L1 in the colon cancer cells” value in assay [6] was “did not significantly alter the PD-L1 expression”.

For the origin of these results see US20240408071A1, “NOVEL COMBINATION OF SEROTONIN RECEPTOR (5-HTR2B) ANTAGONIST AND AN IMMUNOMODULATOR AND CHEMOTHERAPEUTIC DRUGS FOR INHIBITION OF CANCER” (NATIONAL CENTRE FOR CELL SCIENCE, priority 2021, published 2024).
